Reference: PubChem BioAssay AID256 (DTP/NCI, 2004)
Toxic doses and inconclusive results are not listed. The calls were made as follows: active = survival T/C of 150% or more; inactive = T/C below 125% in these data. Non-standard residues stand in square brackets, D forms with d. Residues, ends and D or L forms follow the SMILES beside them. ξ: configuration not given here. *: point of attachment. Cbz = O=C(OCc1ccccc1)*; Bz = O=C(c1ccccc1)*; Bn = c1ccc(C*)cc1; ξC = NC(CS)C(=O)O; βAla = NCCC(=O)O

Tested on: CD2F1 mice, L1210 leukemia ip, survival T/C
Assay: NCI In Vivo Anticancer Drug Screen. Data for tumor model L1210 Leukemia (intraperitoneal) in CD2F1 (CDF1) mice
Settings: higher = longer survival
How it was run: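 Implant tumor; dose compound or vehicle; measure endpoint in both groups; report treated divided by control.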

[1] = endpoint: mean survival time, dose: 100.0 mg/kg/injection, schedule: Q01DX009 (ip), vehicle: saline with Tween-80
[2] = endpoint: mean survival time, dose: 100.0 mg/kg/injection, schedule: Q04DX003 (ip), vehicle: saline with Tween-80
[3] = endpoint: mean survival time, dose: 200.0 mg/kg/injection, schedule: Q01DX009 (ip), vehicle: saline with Tween-80
[4] = endpoint: mean survival time, dose: 200.0 mg/kg/injection, schedule: Q04DX003 (ip), vehicle: saline with Tween-80
[5] = endpoint: mean survival time, dose: 400.0 mg/kg/injection, schedule: Q01DX009 (ip), vehicle: saline with Tween-80
[6] = endpoint: mean survival time, dose: 400.0 mg/kg/injection, schedule: Q04DX003 (ip), vehicle: saline with Tween-80
[7] = endpoint: mean survival time, dose: 100.0 mg/kg/injection, schedule: Q01DX009 (ip), vehicle: saline
[8] = endpoint: mean survival time, dose: 100.0 mg/kg/injection, schedule: Q01DX001 (ip), vehicle: saline with Tween-80
[9] = endpoint: mean survival time, dose: 200.0 mg/kg/injection, schedule: Q01DX001 (ip), vehicle: saline with Tween-80
[10] = endpoint: mean survival time, dose: 400.0 mg/kg/injection, schedule: Q01DX001 (ip), vehicle: saline with Tween-80

Measured: T/C

O=C(Nc1cc(C(F)(F)F)ccc1Cl)c1ccccc1Cl
inactive: [1] 104 % of control | [2] 103 % of control | [3] 94 % of control | [4] 103 % of control | [5] 104 % of control | [6] 101 % of control

CCCCCCCCCCCCC[n+]1ccc(C#N)cc1
inactive: endpoint: mean survival time, dose: 7.5 mg/kg/injection, schedule: Q01DX001 (ip), vehicle: saline 102 % of control | endpoint: mean survival time, dose: 7.5 mg/kg/injection, schedule: Q01DX009 (ip), vehicle: saline 107 % of control | endpoint: mean survival time, dose: 15.0 mg/kg/injection, schedule: Q01DX001 (ip), vehicle: saline 94 % of control | endpoint: mean survival time, dose: 15.0 mg/kg/injection, schedule: Q01DX009 (ip), vehicle: saline 101 % of control | endpoint: mean survival time, dose: 30.0 mg/kg/injection, schedule: Q01DX001 (ip), vehicle: saline 97 % of control

NC(=O)C(c1cccs1)c1cccs1
inactive: endpoint: mean survival time, dose: 100.0 mg/kg/injection, schedule: Q04DX002 (ip), vehicle: saline with Tween-80 93 % of control | endpoint: mean survival time, dose: 200.0 mg/kg/injection, schedule: Q04DX002 (ip), vehicle: saline with Tween-80 87 % of control | endpoint: mean survival time, dose: 400.0 mg/kg/injection, schedule: Q04DX002 (ip), vehicle: saline with Tween-80 90 % of control

COC(=O)C(CSCc1ccccc1)NC(=O)C(CSCc1ccccc1)NC(=O)CCNC(=O)OCc1ccccc1 (stereo unspecified) ({Cbz-βAla}-Cys(Bn)-Cys(Bn)-OMe; configuration not given here)
inactive: endpoint: mean survival time, dose: 25.0 mg/kg/injection, schedule: Q01DX005 (ip), vehicle: water 103 % of control | endpoint: mean survival time, dose: 50.0 mg/kg/injection, schedule: Q01DX005 (ip), vehicle: water 98 % of control | endpoint: mean survival time, dose: 100.0 mg/kg/injection, schedule: Q01DX005 (ip), vehicle: water 106 % of control | endpoint: mean survival time, dose: 200.0 mg/kg/injection, schedule: Q01DX005 (ip), vehicle: water 103 % of control | endpoint: mean survival time, dose: 400.0 mg/kg/injection, schedule: Q01DX005 (ip), vehicle: water 105 % of control

O=C(O)c1ccccc1C(=O)OCC(c1ccccc1)c1ccccc1
inactive: [2] 97 % of control | [4] 89 % of control

COC1CCC2CC1[N+](C)(C)C2 (stereo unspecified)
inactive: endpoint: mean survival time, dose: 12.5 mg/kg/injection, schedule: Q04DX002 (ip), vehicle: saline 96 % of control | endpoint: mean survival time, dose: 25.0 mg/kg/injection, schedule: Q04DX002 (ip), vehicle: saline 101 % of control | endpoint: mean survival time, dose: 50.0 mg/kg/injection, schedule: Q04DX002 (ip), vehicle: saline 101 % of control

CCNC(C)(C)C(SSSC(c1ccc(C(F)(F)F)cc1)C(C)(C)NCC)c1ccc(C(F)(F)F)cc1 (stereo unspecified)
inactive: [7] 90 % of control

O=C1C=CC(=O)C1
inactive: endpoint: mean survival time, dose: 5.0 mg/kg/injection, schedule: Q04DX002 (ip), vehicle: saline with Tween-80 108 % of control

COC(=O)C(CSCc1ccccc1)NC(=O)CNC(=O)c1ccccc1 (stereo unspecified) (Bz-Gly-[ξC](Bn)-OMe)
inactive: [8] 98 % of control | [1] 91 % of control | [9] 93 % of control | [3] 94 % of control | [10] 97 % of control | [5] 91 % of control

CCOC(=O)Nc1cc(NC(C)CCCN(CC)CC)c2ncc(-c3ccccc3)nc2n1 (stereo unspecified) (tested in a mixture with another compound)
inactive: endpoint: mean survival time, dose: 25.0 mg/kg/injection, schedule: Q01DX009 (ip), vehicle: saline 89 % of control | endpoint: mean survival time, dose: 25.0 mg/kg/injection, schedule: Q04DX003 (ip), vehicle: saline 98 % of control | endpoint: mean survival time, dose: 50.0 mg/kg/injection, schedule: Q01DX009 (ip), vehicle: saline 94 % of control | endpoint: mean survival time, dose: 50.0 mg/kg/injection, schedule: Q04DX003 (ip), vehicle: saline 98 % of control | [7] 95 % of control | endpoint: mean survival time, dose: 100.0 mg/kg/injection, schedule: Q04DX003 (ip), vehicle: saline 108 % of control

CCCCC(CC)CNCCOC(=O)c1ccc([N+](=O)[O-])cc1 (stereo unspecified)
inactive: endpoint: mean survival time, dose: 75.0 mg/kg/injection, schedule: Q01DX001 (ip), vehicle: saline 97 % of control | endpoint: mean survival time, dose: 150.0 mg/kg/injection, schedule: Q01DX001 (ip), vehicle: saline 100 % of control | endpoint: mean survival time, dose: 300.0 mg/kg/injection, schedule: Q01DX001 (ip), vehicle: saline 102 % of control

c1ccc([P+](Cc2ccc(C[P+](c3ccccc3)(c3ccccc3)c3ccccc3)cc2)(c2ccccc2)c2ccccc2)cc1
inactive: endpoint: mean survival time, dose: 0.07 mg/kg/injection, schedule: Q01DX009 (ip), vehicle: saline sonified 94 % of control | endpoint: mean survival time, dose: 0.07 mg/kg/injection, schedule: Q04DX003 (ip), vehicle: saline with Tween-80 97 % of control | endpoint: mean survival time, dose: 0.15 mg/kg/injection, schedule: Q01DX009 (ip), vehicle: saline sonified 98 % of control | endpoint: mean survival time, dose: 0.15 mg/kg/injection, schedule: Q04DX003 (ip), vehicle: saline with Tween-80 93 % of control | endpoint: mean survival time, dose: 0.3 mg/kg/injection, schedule: Q01DX009 (ip), vehicle: saline sonified 93 % of control | endpoint: mean survival time, dose: 0.3 mg/kg/injection, schedule: Q04DX003 (ip), vehicle: saline with Tween-80 93 % of control | endpoint: mean survival time, dose: 0.6 mg/kg/injection, schedule: Q01DX009 (ip), vehicle: saline sonified 96 % of control | endpoint: mean survival time, dose: 0.6 mg/kg/injection, schedule: Q04DX003 (ip), vehicle: saline with Tween-80 98 % of control

O=c1[nH]c(=S)c(SCc2ccccc2)nn1C1OC(COP(=O)(O)O)C(O)C1O (stereo unspecified)
inactive: endpoint: median survival time, dose: 5.63 mg/kg/injection, schedule: Q01DX005 (ip), vehicle: water 98 % of control | endpoint: median survival time, dose: 11.25 mg/kg/injection, schedule: Q01DX005 (ip), vehicle: water 98 % of control | endpoint: median survival time, dose: 22.5 mg/kg/injection, schedule: Q01DX005 (ip), vehicle: water 102 % of control | endpoint: median survival time, dose: 45.0 mg/kg/injection, schedule: Q01DX005 (ip), vehicle: water 105 % of control | endpoint: median survival time, dose: 90.0 mg/kg/injection, schedule: Q01DX005 (ip), vehicle: water 103 % of control

O=C(OCC(OC(=O)c1ccccc1)C(OC(=O)c1ccccc1)C(COC(=O)c1ccccc1)OC(=O)c1ccccc1)c1ccccc1 (stereo unspecified)
inactive: endpoint: mean survival time, dose: 50.0 mg/kg/injection, schedule: Q01DX009 (ip), vehicle: Klucel (hydroxypropylcellulose) (HPC) 97 % of control | endpoint: mean survival time, dose: 100.0 mg/kg/injection, schedule: Q01DX009 (ip), vehicle: Klucel (hydroxypropylcellulose) (HPC) 97 % of control | endpoint: mean survival time, dose: 200.0 mg/kg/injection, schedule: Q01DX009 (ip), vehicle: Klucel (hydroxypropylcellulose) (HPC) 86 % of control

c1cc2c(cc1CNC1=NCCO1)OCO2
inactive: [2] 98 % of control | [4] 105 % of control | [6] 98 % of control

CCOP(=S)(N=C=S)OCC
inactive: endpoint: mean survival time, dose: 25.0 mg/kg/injection, schedule: Q04DX002 (ip), vehicle: saline with Tween-80 98 % of control | endpoint: mean survival time, dose: 50.0 mg/kg/injection, schedule: Q04DX002 (ip), vehicle: saline with Tween-80 90 % of control

CC1C2C=CC1C(c1c3ccc(=O)cc-3oc3cc(O)ccc13)C2C(=O)O (stereo unspecified)
inactive: [2] 103 % of control | [4] 97 % of control | [6] 111 % of control

[N-]=[N+]=CC(=O)NCC(=O)NNC(=O)c1ccccc1
inactive: [1] 105 % of control | [2] 96 % of control | [3] 107 % of control | [4] 104 % of control | [5] 108 % of control | [6] 105 % of control

CCOc1ccc(C(/C(Cl)=N/O)C(Cl)(Cl)Cl)cc1 (stereo unspecified)
inactive: endpoint: mean survival time, dose: 12.5 mg/kg/injection, schedule: Q01DX009 (ip), vehicle: acetone 94 % of control | endpoint: mean survival time, dose: 25.0 mg/kg/injection, schedule: Q01DX009 (ip), vehicle: acetone 103 % of control | endpoint: mean survival time, dose: 50.0 mg/kg/injection, schedule: Q01DX009 (ip), vehicle: acetone 108 % of control

CC1(C)CCCC2(C)C1C(=O)C=CC2(O)CCc1ccoc1.CC12CCc3ccoc3C1CCC1(C(=O)O)C(CO)=CCCC12.[Ag] (stereo unspecified)
inactive: endpoint: mean survival time, dose: 75.0 mg/kg/injection, schedule: Q04DX002 (ip), vehicle: other 103 % of control | endpoint: mean survival time, dose: 150.0 mg/kg/injection, schedule: Q04DX002 (ip), vehicle: other 115 % of control | endpoint: mean survival time, dose: 300.0 mg/kg/injection, schedule: Q04DX002 (ip), vehicle: other 107 % of control

CN=C(N)N/N=C/c1ccccc1
inactive: endpoint: mean survival time, dose: 7.5 mg/kg/injection, schedule: Q04DX003 (ip), vehicle: saline 95 % of control | endpoint: mean survival time, dose: 15.0 mg/kg/injection, schedule: Q04DX003 (ip), vehicle: saline 97 % of control | endpoint: mean survival time, dose: 30.0 mg/kg/injection, schedule: Q04DX003 (ip), vehicle: saline 112 % of control

CCOC(=O)c1cnc(SC)nc1NCc1ccc(Cl)cc1
inactive: [8] 98 % of control | [1] 100 % of control | [9] 102 % of control | [3] 103 % of control | [10] 94 % of control | [5] 97 % of control
